Laboratory results from ChEMBL document CHEMBL5528076, “Development of Selective Pyrido[2,3-d]pyrimidin-7(8H)-one-Based Mammalian STE20-Like (MST3/4) Kinase Inhibitors” (J Med Chem, 2024).

How the values were obtained:
[1] = molecular target: T1, Serine/threonine-protein kinase 26 (Homo sapiens, UniProt Q9P289); test: Binding affinity to recombinant MST4 (unknown origin) assessed as change in melting temperature by DSF analysis
Target sequence in this assay (Q9P289 2-416 limits assumed): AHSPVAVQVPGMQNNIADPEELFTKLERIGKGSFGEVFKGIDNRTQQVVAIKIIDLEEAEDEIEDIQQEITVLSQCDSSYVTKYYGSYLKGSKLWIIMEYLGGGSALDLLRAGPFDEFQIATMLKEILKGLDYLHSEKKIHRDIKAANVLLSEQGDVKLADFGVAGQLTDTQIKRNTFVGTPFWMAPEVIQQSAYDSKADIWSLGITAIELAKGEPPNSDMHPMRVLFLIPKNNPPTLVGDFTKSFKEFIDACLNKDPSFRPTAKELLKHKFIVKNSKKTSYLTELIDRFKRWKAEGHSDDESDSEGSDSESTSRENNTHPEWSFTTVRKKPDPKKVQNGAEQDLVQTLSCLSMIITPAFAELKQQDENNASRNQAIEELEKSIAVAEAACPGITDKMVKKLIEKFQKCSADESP

[2] = molecular target: T2, Serine/threonine-protein kinase 24 (Homo sapiens, UniProt Q9Y6E0); test: Inhibition of MST3 (unknown origin) expressed in HEK293T cells using NanoGlo as substrate incubated for 20 hrs by NanoBRET assay; assay type: cell-based
Target sequence in this assay (Q9Y6E0 whole entry): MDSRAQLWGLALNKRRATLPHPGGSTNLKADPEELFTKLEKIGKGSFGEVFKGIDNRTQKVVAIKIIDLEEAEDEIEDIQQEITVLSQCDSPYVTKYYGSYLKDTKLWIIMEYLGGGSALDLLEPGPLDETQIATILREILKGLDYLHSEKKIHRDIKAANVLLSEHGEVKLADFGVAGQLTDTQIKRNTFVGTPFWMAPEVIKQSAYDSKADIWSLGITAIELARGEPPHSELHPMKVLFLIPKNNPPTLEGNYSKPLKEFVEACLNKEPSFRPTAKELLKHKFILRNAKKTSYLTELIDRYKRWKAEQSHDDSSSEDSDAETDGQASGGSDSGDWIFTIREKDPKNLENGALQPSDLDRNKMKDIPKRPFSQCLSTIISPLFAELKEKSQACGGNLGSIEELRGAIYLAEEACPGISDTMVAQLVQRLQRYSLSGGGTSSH

[3] = molecular target: Serine/threonine-protein kinase PAK 1 (Homo sapiens) (UniProt Q13153); test: Binding affinity to recombinant PAK1 (unknown origin) assessed as change in melting temperature by DSF analysis
[4] = molecular target: T2, Serine/threonine-protein kinase 24; test: Binding affinity to recombinant MST3 (unknown origin) assessed as change in melting temperature by DSF analysis
Target sequence in this assay (Q9Y6E0 whole entry, looked up): as the sequence (Q9Y6E0 whole entry) above

[5] = molecular target: T3, Serine/threonine-protein kinase 4 (Homo sapiens, UniProt Q13043); test: Inhibition of MST1 (unknown origin) expressed in HEK293T cells using NanoGlo as substrate incubated for 20 hrs by NanoBRET assay; assay type: cell-based
T3 sequence (Q13043 whole entry): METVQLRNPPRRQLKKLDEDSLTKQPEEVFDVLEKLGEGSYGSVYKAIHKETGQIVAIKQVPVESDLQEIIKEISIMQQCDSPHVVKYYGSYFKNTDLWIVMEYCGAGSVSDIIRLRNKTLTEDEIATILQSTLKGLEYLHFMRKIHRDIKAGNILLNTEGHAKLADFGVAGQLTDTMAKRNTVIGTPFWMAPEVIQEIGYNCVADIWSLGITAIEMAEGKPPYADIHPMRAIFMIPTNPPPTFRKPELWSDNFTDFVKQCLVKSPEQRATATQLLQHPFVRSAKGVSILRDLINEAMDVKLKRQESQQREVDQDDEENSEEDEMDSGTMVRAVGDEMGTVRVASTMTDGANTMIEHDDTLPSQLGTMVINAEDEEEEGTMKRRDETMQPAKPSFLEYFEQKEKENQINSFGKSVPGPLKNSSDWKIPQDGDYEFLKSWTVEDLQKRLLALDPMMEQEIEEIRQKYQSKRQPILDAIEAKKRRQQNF

[6] = molecular target: T4, Serine/threonine-protein kinase 4 (Homo sapiens) (UniProt Q13043); test: Binding affinity to recombinant MST1 (unknown origin) assessed as change in melting temperature by DSF analysis
T4 sequence (whole entry): T3 sequence (Q13043 whole entry)

[7] = molecular target: Serine/threonine-protein kinase SIK2 (Homo sapiens, UniProt Q9H0K1); test: Inhibition of SIK2 (unknown origin) expressed in HEK293T cells using NanoGlo as substrate incubated for 20 hrs by NanoBRET assay; assay type: cell-based
[8] = molecular target: T5, Serine/threonine-protein kinase 3 (Homo sapiens, UniProt Q13188); test: Inhibition of MST2 (unknown origin) expressed in HEK293T cells using NanoGlo as substrate incubated for 20 hrs by NanoBRET assay; assay type: cell-based
T5 sequence (Q13188 whole entry): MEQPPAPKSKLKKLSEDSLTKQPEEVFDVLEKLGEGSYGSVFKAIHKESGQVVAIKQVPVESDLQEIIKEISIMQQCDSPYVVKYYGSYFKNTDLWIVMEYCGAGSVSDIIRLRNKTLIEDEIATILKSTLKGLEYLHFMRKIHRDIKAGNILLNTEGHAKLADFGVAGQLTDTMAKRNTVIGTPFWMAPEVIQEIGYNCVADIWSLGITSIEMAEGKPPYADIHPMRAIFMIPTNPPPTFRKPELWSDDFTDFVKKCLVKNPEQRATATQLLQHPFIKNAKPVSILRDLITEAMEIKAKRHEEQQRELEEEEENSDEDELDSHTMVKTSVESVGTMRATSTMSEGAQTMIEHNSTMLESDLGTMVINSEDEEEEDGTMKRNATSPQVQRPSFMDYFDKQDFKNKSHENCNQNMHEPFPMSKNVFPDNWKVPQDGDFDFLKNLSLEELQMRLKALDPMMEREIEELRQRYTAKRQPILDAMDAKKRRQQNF

[9] = molecular target: T1, Serine/threonine-protein kinase 26; test: Inhibition of MST4 (unknown origin) expressed in HEK293T cells using NanoGlo as substrate incubated for 20 hrs by NanoBRET assay; assay type: cell-based
Target sequence in this assay (Q9P289 whole entry): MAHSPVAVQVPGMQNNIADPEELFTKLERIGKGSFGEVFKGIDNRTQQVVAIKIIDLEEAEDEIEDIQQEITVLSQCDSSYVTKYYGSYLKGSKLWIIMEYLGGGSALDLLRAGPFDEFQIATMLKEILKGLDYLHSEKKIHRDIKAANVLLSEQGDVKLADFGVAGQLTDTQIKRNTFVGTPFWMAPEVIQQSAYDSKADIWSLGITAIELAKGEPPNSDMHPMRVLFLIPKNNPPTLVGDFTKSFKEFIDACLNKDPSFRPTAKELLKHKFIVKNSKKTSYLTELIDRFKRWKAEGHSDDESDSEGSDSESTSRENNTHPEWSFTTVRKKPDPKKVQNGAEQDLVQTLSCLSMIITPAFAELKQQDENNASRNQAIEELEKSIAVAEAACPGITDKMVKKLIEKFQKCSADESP

[10] = molecular target: T6, Serine/threonine-protein kinase 3 (Homo sapiens) (UniProt Q13188); test: Binding affinity to recombinant MST2 (unknown origin) assessed as change in melting temperature by DSF analysis
T6 sequence (whole entry): T5 sequence (Q13188 whole entry)

[11] = molecular target: T2, Serine/threonine-protein kinase 24; test: Inhibition of MST3 (unknown origin) expressed in lysed HEK293T cells using NanoGlo as substrate incubated for 20 hrs by NanoBRET assay; assay type: cell-based
Target sequence in this assay (Q9Y6E0 whole entry): as the sequence (Q9Y6E0 whole entry) above

Sequence of Serine/threonine-protein kinase SIK2 (Q9H0K1 whole entry): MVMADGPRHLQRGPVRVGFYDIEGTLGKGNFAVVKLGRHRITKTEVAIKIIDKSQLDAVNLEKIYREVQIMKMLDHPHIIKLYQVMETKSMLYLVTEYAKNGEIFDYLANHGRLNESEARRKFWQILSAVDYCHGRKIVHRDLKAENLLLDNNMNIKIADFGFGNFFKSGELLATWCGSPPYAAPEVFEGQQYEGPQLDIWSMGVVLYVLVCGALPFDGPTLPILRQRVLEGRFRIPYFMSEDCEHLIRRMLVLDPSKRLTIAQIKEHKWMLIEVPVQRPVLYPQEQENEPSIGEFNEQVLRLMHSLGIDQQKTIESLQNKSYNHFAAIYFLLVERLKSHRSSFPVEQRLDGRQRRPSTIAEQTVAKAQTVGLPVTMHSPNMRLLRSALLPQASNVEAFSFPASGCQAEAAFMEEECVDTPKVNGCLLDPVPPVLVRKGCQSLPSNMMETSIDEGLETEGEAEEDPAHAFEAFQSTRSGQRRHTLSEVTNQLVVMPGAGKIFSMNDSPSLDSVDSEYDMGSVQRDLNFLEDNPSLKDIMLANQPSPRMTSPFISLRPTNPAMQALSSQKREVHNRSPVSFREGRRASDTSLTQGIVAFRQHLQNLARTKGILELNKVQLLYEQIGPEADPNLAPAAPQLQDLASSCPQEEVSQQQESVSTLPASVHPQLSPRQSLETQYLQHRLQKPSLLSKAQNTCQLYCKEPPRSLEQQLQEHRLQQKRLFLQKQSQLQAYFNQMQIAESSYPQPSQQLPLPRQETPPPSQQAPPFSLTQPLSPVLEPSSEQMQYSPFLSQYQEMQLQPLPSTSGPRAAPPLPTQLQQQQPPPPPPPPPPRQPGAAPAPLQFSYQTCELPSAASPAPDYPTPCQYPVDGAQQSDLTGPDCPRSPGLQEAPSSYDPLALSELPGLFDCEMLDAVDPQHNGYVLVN
Sequence of Serine/threonine-protein kinase PAK 1 (Homo sapiens) (Q13153 whole entry): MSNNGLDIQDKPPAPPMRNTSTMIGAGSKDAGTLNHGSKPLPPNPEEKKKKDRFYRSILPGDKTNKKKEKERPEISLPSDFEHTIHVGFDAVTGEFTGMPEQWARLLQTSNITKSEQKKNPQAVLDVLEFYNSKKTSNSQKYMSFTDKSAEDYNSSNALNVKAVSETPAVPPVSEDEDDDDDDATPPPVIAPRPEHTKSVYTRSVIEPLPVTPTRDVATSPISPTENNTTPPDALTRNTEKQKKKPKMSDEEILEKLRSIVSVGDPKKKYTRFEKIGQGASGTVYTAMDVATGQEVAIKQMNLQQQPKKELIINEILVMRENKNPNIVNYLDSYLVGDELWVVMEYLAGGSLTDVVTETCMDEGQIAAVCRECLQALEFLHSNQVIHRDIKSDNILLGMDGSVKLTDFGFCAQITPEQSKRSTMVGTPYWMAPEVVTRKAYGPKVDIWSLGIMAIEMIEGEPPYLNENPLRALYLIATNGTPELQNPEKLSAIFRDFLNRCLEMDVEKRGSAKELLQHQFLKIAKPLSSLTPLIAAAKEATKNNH

SMILES | ΔTm [1] [°C] | EC50 [2] [nM] | ΔTm [3] [°C] | ΔTm [4] [°C] | EC50 [5] [nM] | ΔTm [6] [°C] | EC50 [7] [nM] | EC50 [8] [nM] | EC50 [9] [nM] | ΔTm [10] [°C] | EC50 [11] [nM]
CNc1ncc2cc(-c3ccc(-c4cccc(C)n4)cc3Cl)c(=O)n(CCOC)c2n1 | 4.4 | 420 | 4.1 | 6.7 | 31400 | 3.9 | 2500 | 28500 | 13000 | 5 | 
Cc1cccc(-c2ccc(-c3cc4cnc(Nc5ccc(F)c(CO)c5)nc4n(CCCCN)c3=O)c(Cl)c2)n1 | 14.8 |  | 9.3 | 16.9 | 314 | 8.6 | 51 | 184 | 44 | 16 | 10
Cc1cccc(-c2ccc(-c3cc4cnc(Nc5ccc(C)c(O)c5)nc4n(CCCCN)c3=O)c(Cl)c2)n1 | 15.9 |  | 9.1 | 17.5 | 530 | 8.1 | 37 | 537 | 60 | 13.2 | 34
CNc1ncc2cc(-c3ccc(-c4cccc(C)n4)cc3Cl)c(=O)n(CCCCOC)c2n1 | 3.6 | 614 | 4.8 | 6.2 | 5300 | 3.3 | 1300 | 4600 | 5500 | 8.6 | 
Cc1cccc(-c2ccc(-c3cc4cnc(Nc5ccc(O)cc5)nc4n(CCCCN)c3=O)c(Cl)c2)n1 | 15 |  | 9.2 | 17.1 | 419 | 8 | 62 | 369 | 44 | 13.7 | 23
CNc1ncc2cc(-c3ccc(-c4cccc(C)n4)cc3Cl)c(=O)n(CCCOC)c2n1 | 4.1 | 594 | 5.1 | 5.1 | 9200 | 3.6 | 1700 | 9300 | 7600 | 6.2 | 
COc1cc(N2CCN(C)CC2)ccc1Nc1ncc2cc(-c3ccc(-c4cccc(C)n4)cc3Cl)c(=O)n(CCCCN)c2n1 | 6.7 |  | 8.8 | 13.5 | > 50000 | 4 | 153 | 16900 | 38300 | 7.4 | 278
CNc1ncc2cc(-c3ccc(-c4cccc(C)n4)cc3Cl)c(=O)n(CCCO)c2n1 | 5 | 382 | 4.5 | 6.2 | 6700 | 3.4 | 505 | 6000 | 4500 | 6.3 | 
CNc1ncc2cc(-c3ccc(-c4cccc(C)n4)cc3Cl)c(=O)n(CCCCCO)c2n1 | 5.5 | 316 | 6 | 6.6 | 3000 | 2.4 | 266 | 2800 | 2200 | 6.1 | 
COc1cc(N2CCOCC2)ccc1Nc1ncc2cc(-c3ccc(-c4cccc(C)n4)cc3Cl)c(=O)n(CCCCN)c2n1 | 9.2 |  | 5 | 11 | 2100 | 4.6 | 85 | 3100 | 1200 | 7.5 | 115
CNc1ncc2cc(-c3ccc(-c4cccc(C)n4)cc3Cl)c(=O)[nH]c2n1 | 0 |  | 0 | 0.6 |  | 0 | 1600 |  |  | 0.3 | 
CNc1ncc2cc(-c3ccc(-c4cccc(C)n4)cc3Cl)c(=O)n(C)c2n1 | 1.6 | 775 | 3.2 | 3.7 | 12800 | 1.6 | 3200 | 7600 | 4600 | 1.3 | 
Cc1cccc(-c2ccc(-c3cc4cnc(NCCCN5CCNCC5)nc4n(CCCCN)c3=O)c(Cl)c2)n1 | 8.9 |  | 5 | 13 | > 50000 | 3.1 | 5900 | > 50000 | 2800 | 15.8 | 33
CNc1ncc2cc(-c3ccc(-c4cccc(C)n4)cc3Cl)c(=O)n(CCCCCN)c2n1 | 7.1 | 92 | 6.3 | 9.2 | 2500 | 5.2 | 61 | 2500 | 2100 | 10.7 | 
CNc1ncc2cc(-c3ccc(-c4cccc(C)n4)cc3Cl)c(=O)n(C[C@H]3CC[C@H](N)CC3)c2n1 | 8.2 | 48 | 8.4 | 10.8 | 660 | 7.9 | 16 | 552 | 500 | 10.8 | 
Cc1cccc(-c2ccc(-c3cc4cnc(NCCCc5ccc(N)cc5)nc4n(CCCCN)c3=O)c(Cl)c2)n1 | 9.7 |  | 6.8 | 12.2 | 3400 | 4.9 | 516 | 3600 | 681 | 7.2 | 57
CNc1ncc2cc(-c3ccc(-c4cccc(C)n4)cc3Cl)c(=O)n(CCO)c2n1 | 5.8 | 288 | 5 |  | 7700 | 4 | 871 | 4400 | 3600 | 9 | 
COc1ccc(O)c(Nc2ncc3cc(-c4ccc(-c5cccc(C)n5)cc4Cl)c(=O)n(CCCCN)c3n2)c1 | 8.3 |  | 4.5 | 11 | 3300 | 3.8 | 543 | 3100 | 793 | 5.4 | 163
CNc1ncc2cc(-c3ccc(-c4cccc(C)n4)cc3Cl)c(=O)n(CCC3CCNCC3)c2n1 | 7.8 | 60 | 8.6 |  | 1600 | 6 | 78 | 1800 | 800 | 8 | 
CNc1ncc2cc(-c3ccc(-c4cccc(C)n4)cc3Cl)c(=O)n(C[C@H]3OC[C@H](N)CO3)c2n1 |  |  |  |  | 30400 |  |  | 4600 |  |  | 
CNc1ncc2cc(-c3ccc(-c4cccc(C)n4)cc3Cl)c(=O)n(CCCN)c2n1 | 7.2 | 251 | 4 | 7.9 | 26300 | 2.8 | 162 | 19800 | 4300 | 4.4 | 
CNc1ncc2cc(-c3ccc(-c4cccc(C)n4)cc3Cl)c(=O)n(CCCCO)c2n1 | 5 | 244 | 5 | 5.7 | 3400 | 3.8 | 138 | 3600 | 4000 | 7.1 | 
CNc1ncc2cc(-c3ccc(-c4cccc(C)n4)cc3Cl)c(=O)n(CCN)c2n1 | 3.3 | 1200 | 1.3 | 5.5 | > 50000 | 1.6 | 1400 | 13700 | 14800 | 1.6 | 
